Holding throughout (assay type): cell-based
Assay [1] addresses T1, GSPT1 (eRF3a) (Homo sapiens, UniProt P15170+Q96SW2).
T1 construct: The downregulation of SRD5A3 and GSPT1 (eRF3a) proteins in PC-3 and HepG2 cells by C59; endogenous in cells; host or cells: 22Rv1, PC-3, HepG2
The assay is described as follows: Western blot assay in HepG2 cells: GSPT1 (eRF3a). The following applies: different concentrations at 24 h (FIG. 10). The text has this:
Example 84: Western Blot Assay of Compound C59 in 22Rv1, PC-3, and HepG2 Cells
(1) Materials: 22Rv1, PC-3, and HepG2 cell, anti-SRD5A1 antibody (ab167606), anti-SRD5A2 antibody (ab124877), anti-SRD5A3 antibody (PA5-107029), anti-androgen receptor (AR) antibody (CST, No. 5153), anti-GSPT1 antibody (Abcam, ab234433), anti-GADPH antibody (CST, No. 5174), anti-c-Myc antibody (CST, No. 8583), anti-α-tublin antibody (CST, No. 2125), anti-rabbit IgG, HRP-linked antibody (CST, No. 7074), electrophoresis device and membrane transfer device (LIUYI, BEIJING; DYCZ-24DN)
Cell seeding: 22Rv1 (Cell Bank of the Chinese Academy of Sciences, TCHu100), PC-3 (Cell Bank of the Chinese Academy of Sciences, SCSP-532) and HepG2 cells (Cell Bank of the Chinese Academy of Sciences, TCHu72) were subcultured and trypsinized to prepare 6×10^5 cells/mL suspensions, seeded on 6-well plates (3 mL/well), and cultured overnight in a cell incubator at 5% CO2 and 37° C. […]
Protein quantification: The protein was quantified using a BCA protein quantification kit. […]
Western immunoblot assay (or Western blot, WB): SDS-PAGE gel at a proper concentration was prepared according to the molecular weight of the target protein: for example, the concentration of the separation gel was 8% and the concentration of the stacking gel was 5%. The loading volume was adjusted according to the protein quantification results. […]

In assay [2] the test system is HGC-27 cells. The assay is described as follows: Anti-proliferative toxicity of C63 in tumor cell lines (CCK8): HGC-27. The conditions noted are these: Homo sapiens, 72 h, 3 days, read-out: Inhibition rate. Here is the method: (§1) Example 83: Detection of Anti-Proliferative Toxicity of C63 in Some Tumor Cell Lines
HGC-27 cells (purchased from the Cell Bank of the Chinese Academy of Sciences, Cat. No. TCHu22) were subcultured in a culture medium (RPMI-1640 medium+1% penicillin-streptomycin dual-antibiotic solution++20% fetal bovine serum) in an incubator at 5% carbon dioxide and 37° C.
HGC-27 cells were seeded at 3000 cells/well (90 μL) on a 96-well plate and cultured for 24 h.
(§2) 10 mM compound stock solutions were prepared in DMSO.
(§3) The compound stock solution was diluted with DMSO to give DMSO solutions 1-9 at concentrations of 0 μM, 2500 μM, 500 μM, 100 μM, 20 μM, 4 μM, 0.8 μM, 0.16 μM, and 0.032 μM.
(§4) 2 μL of each of solutions 1-9 was added to 98 μL of the medium to give mixed solutions 11-19 of the compound and the medium.
(§5) 10 μL of each of solutions 11-19 was added to the above cell seed solution to give a total volume of 100 μL (90 μL+10 μL).
(§6) The concentrations of the compound in the wells were 0 μM, 5.0 μM, 1.0 μM, 0.2 μM, 0.04 μM, 0.008 μM, 0.0016 μM, 0.00032 μM, and 0.000064 μM. All concentrations were in triplicate.
(§7) After the above-treated cells were cultured for 3 days, 10 μL of the CCK8 solution (DOJINDO, Cat. No. PF725) was added to each well. The plate was incubated in an incubator at 37° C. for 1-4 h and then detected on a microplate reader for the reading at 450 nm.

Assay [3] has as its system SNU-1 cells. In words: Anti-proliferative toxicity of C63 in tumor cell lines (CCK8): SNU-1. The following applies: Homo sapiens, SNU1, 72 h, 3 days, read-out: Inhibition rate. Here is the method:
as §1
SNU-1 cells (purchased from the Cell Bank of the Chinese Academy of Sciences, Cat. No. TCHu230) were subcultured in a culture medium (RPMI-1640 medium+1% penicillin-streptomycin dual-antibiotic solution+10% fetal bovine serum) in an incubator at 5% carbon dioxide and 37° C.
SNU-1 cells were seeded at 5000 cells/well (90 μL) on a 96-well plate and cultured for 24 h.
as §2, §3, §4, §5, §6, §7

Assay [4] deals with PANC-1 cells. The assay is described as follows: Anti-proliferative toxicity of C63 in tumor cell lines (CCK8): PANC-1. The conditions noted are these: Homo sapiens, 72 h, 3 days, read-out: Inhibition rate. Here is the method:
as §1
PANC-1 cells (purchased from the Cell Bank of the Chinese Academy of Sciences, Cat. No. SCSP-535) were subcultured in a culture medium (DMEM medium+1% penicillin-streptomycin dual-antibiotic solution+10% fetal bovine serum) in an incubator at 5% carbon dioxide and 37° C.
PANC-1 cells were seeded at 5000 cells/well (90 μL) on a 96-well plate and cultured for 24 h.
as §2, §3, §4, §5, §6, §7

The source of these data is US20250213701A1, “MEDICAMENT FOR TREATING HUMAN TUMOR BASED ON ERF3A-TARGETING PROTEOLYSIS MECHANISM” (SUZHOU DEGEN BIO-MEDICAL CO., LTD., priority 2022, published 2025).

As usually defined, the inhibition is how much of the control response was suppressed.

T1 sequence (P15170 1-637 isoform P15170-3): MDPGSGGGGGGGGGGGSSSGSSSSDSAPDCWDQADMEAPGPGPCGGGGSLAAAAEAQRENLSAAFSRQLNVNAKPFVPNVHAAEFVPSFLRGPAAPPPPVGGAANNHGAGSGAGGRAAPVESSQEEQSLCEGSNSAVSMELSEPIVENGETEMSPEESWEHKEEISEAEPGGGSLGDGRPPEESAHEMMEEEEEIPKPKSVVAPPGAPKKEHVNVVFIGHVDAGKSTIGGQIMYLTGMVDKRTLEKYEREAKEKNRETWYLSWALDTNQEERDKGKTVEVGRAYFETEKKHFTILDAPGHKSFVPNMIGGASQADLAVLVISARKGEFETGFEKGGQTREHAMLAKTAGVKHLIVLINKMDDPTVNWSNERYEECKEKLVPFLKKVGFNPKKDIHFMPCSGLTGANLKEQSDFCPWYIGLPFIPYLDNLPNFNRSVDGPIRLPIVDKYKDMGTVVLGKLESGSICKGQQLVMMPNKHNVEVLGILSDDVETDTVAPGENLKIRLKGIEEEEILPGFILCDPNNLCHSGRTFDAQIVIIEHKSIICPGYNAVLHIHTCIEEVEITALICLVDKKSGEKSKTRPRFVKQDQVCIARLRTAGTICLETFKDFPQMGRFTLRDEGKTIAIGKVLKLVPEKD
T1 sequence (Q96SW2 whole entry): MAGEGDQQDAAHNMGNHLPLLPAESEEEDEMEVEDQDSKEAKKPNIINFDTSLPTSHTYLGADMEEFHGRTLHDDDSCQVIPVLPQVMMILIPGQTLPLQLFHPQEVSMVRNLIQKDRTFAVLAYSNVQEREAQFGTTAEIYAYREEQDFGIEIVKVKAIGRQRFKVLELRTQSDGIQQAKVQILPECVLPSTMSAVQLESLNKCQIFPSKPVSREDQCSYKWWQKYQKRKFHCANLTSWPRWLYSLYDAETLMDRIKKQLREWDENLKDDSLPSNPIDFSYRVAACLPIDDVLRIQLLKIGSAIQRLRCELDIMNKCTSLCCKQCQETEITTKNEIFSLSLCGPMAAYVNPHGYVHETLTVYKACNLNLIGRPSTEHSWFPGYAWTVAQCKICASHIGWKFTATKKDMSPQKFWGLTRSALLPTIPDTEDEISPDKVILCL
T1 sequence (Q16531 whole entry partner): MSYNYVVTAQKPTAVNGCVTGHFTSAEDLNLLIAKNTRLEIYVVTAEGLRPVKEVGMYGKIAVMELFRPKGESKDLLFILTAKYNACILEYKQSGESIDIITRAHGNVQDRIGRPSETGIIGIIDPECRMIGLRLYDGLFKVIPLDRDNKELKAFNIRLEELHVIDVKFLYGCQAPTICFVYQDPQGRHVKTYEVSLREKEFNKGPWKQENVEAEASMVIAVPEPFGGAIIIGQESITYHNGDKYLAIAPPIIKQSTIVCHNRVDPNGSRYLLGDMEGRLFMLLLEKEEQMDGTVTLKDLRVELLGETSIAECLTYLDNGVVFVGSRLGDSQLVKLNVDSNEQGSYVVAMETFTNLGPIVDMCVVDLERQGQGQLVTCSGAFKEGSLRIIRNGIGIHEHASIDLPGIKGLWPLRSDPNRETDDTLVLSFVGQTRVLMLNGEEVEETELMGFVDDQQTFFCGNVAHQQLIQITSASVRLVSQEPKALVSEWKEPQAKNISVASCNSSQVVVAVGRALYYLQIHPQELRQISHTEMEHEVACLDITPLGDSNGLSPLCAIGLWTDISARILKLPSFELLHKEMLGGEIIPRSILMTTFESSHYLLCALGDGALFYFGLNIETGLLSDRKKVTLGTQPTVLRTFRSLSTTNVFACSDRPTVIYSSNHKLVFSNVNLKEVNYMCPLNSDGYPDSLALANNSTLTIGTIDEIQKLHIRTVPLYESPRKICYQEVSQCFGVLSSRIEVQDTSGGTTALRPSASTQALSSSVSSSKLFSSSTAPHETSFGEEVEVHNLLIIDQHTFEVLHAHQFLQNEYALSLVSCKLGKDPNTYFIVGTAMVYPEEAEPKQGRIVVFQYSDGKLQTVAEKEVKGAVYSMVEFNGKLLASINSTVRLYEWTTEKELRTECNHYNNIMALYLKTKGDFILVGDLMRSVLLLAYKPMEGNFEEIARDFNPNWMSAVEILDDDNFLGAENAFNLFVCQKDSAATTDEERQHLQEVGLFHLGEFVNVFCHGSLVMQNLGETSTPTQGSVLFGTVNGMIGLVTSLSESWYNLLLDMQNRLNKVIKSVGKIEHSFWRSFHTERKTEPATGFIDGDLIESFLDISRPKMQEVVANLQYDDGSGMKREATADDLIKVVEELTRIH

Regarding `C[C@]12C=CC(=O)N[C@@H]1CC[C@@H]1[C@@H]2CC[C@]2(C)[C@@H](C(=O)Nc3cccc(N[C@@H]4CCC[C@@H](Nc5cccc6c5C(=O)N(C5CCC(=O)NC5=O)C6=O)C4)c3)CC[C@@H]12` (stereo partly drawn) [C59, N-(3-(N—(N-(4-(2-(3-(2,6-dioxopiperidine))-isoindole-1,3-dione))-1R,3R-cyclohexanediamine))phenyl)-3-oxo-4-aza-5α-androst-1-ene-17β-carboxamide], the “downregulation of GSPT1 (eRF3a) protein (Western blot)” value in assay [1] is recorded as “downregulation”.

As to `C[C@]12C=CC(=O)N[C@@H]1CC[C@@H]1[C@@H]2CC[C@]2(C)[C@@H](C(=O)Nc3cccc(N[C@@H]4CCC[C@@H](Nc5cccc6c5C(=O)N([C@H]5CCC(=O)NC5=O)C6=O)C4)c3)CC[C@@H]12` [C63, N-(3-(N—(N-(4-(2-(3S-(2,6-dioxopiperidine))-isoindole-1,3-dione))-1R,3R-cyclohexanediamine))phenyl)-3-oxo-4-aza-5α-androst-1-ene-17β-carboxamide], the results for the inhibition at 64 pM in assay [2] (0.000064 μM), in assay [3] (0.000064 μM) and in assay [4] (0.000064 μM) were 7.74%, 10.2% and 21.2%, respectively. Also, the inhibition at 0.00032 µM in assay [2] (0.000320 μM) came to 9.52%; in assay [3] (0.000320 μM) it was 28.9%; in assay [4] (0.000320 μM), 12.8%. In addition, the inhibition at 0.0016 µM in assay [2] (0.001600 μM) was determined as 80%; in assay [3] (0.001600 μM), 65.1%; in assay [4] (0.001600 μM), 25.3%. The inhibition at 0.008 µM came out at 94.2% in assay [2] (0.008000 μM), 75.2% in assay [3] (0.008000 μM) and 31.6% in assay [4] (0.008000 μM). Further, the figures for the inhibition at 0.04 µM in assay [2] (0.040000 μM), in assay [3] (0.040000 μM) and in assay [4] (0.040000 μM) were 97.1%, 82.7% and 36.3%, respectively. Also, the inhibition at 0.2 µM turned out to be 98.3% in assay [2] (0.200000 μM), 82% in assay [3] (0.200000 μM) and 42.1% in assay [4] (0.200000 μM). Moreover, the inhibition at 1 µM worked out at 98.2% in assay [2] (1.000000 μM), 80.9% in assay [3] (1.000000 μM) and 48.7% in assay [4] (1.000000 μM). Besides, the figures for the inhibition at 5 µM in assay [2] (5.000000 μM), in assay [3] (5.000000 μM) and in assay [4] (5.000000 μM) were 97.7%, 79.9% and 52.8%, respectively.
